Key:
[1] = target: FAP (Macaca fascicularis, UniProt A0A2K5VGH4); experiment: FAP plasma inhibition assay, cynomolgus plasma; format: biochemical; conditions: cynomolgus plasma diluted 1:40, 75 μM Ala-Pro-AMC; n = 1; read-out: FAP Cyno Plasma IC50
Description: D. FAP Plasma Inhibition Assay This assay was adapted from the method described in Example 237 for detection of FAP target engagement enzyme activity in plasma. […] Compounds were tested using 10 CR, 3 fold dilution series from 500 nM FAC. Two replicates for each assay point were run on the same plate. A fluorescence blank read was taken before substrate addition. […] Plates were incubated for 40 min at rt in the dark. […] IC50 values were determined by plotting % inhibition versus log compound concentration.

[2] = Caco-2 cell permeability; format: in vitro ADME; conditions: human, Caco-2, AB intrinsic; n = 1 or average of n = 2-4; read-out: Caco2 AB Intrinsic Papp
Description: Caco-2 cell permeability was measured as described in Mol Pharm 2017, 14, 1601.

Chain of FAP (A0A2K5VGH4 entry or part of it): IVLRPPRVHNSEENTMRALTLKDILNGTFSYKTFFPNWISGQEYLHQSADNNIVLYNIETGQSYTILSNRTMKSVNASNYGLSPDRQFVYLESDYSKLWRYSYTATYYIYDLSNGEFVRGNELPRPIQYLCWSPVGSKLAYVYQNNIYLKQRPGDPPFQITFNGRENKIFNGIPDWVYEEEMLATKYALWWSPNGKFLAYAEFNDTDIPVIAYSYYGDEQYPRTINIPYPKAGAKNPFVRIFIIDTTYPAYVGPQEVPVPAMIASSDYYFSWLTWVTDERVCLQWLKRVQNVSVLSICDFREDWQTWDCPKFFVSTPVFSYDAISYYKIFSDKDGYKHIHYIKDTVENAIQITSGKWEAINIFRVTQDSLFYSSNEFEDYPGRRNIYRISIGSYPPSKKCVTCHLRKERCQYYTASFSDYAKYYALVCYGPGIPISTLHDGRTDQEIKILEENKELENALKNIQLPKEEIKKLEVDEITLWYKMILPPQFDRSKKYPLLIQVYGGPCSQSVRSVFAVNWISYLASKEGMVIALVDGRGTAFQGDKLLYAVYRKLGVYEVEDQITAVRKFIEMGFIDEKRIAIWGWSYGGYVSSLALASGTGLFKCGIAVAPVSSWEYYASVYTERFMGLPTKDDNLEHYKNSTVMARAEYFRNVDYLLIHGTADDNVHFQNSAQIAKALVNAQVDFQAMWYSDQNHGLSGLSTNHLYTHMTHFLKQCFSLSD

Row | Structure (SMILES) | IC50 [1] | Papp A→B [2]
1 | N#C[C@@H]1CSCN1C(=O)CNC(=O)c1c(F)cnc2ccc(N3CCOCC3)cc12 [Example 2, (R)—N-(2-(4-Cyanothiazolidin-3-yl)-2-oxoethyl)-3-fluoro-6-morpholino-quinoline-4-carboxamide] | 9.2 nM | 23 ×10⁻⁶ cm/s
2 | CC1(C)OCCN(c2ccc3nccc(C(=O)NCC(=O)N4CSC[C@H]4C#N)c3c2)C1=O [Example 16, (R)—N-(2-(4-Cyanothiazolidin-3-yl)-2-oxoethyl)-6-(2,2-dimethyl-3-oxomorpholino)quinoline-4-carboxamide] | 0.2 nM | –
3 | CC1(CF)CN(c2ccc3nccc(C(=O)NCC(=O)N4CSC[C@H]4C#N)c3c2)C1 [Example 27, (R)—N-(2-(4-Cyanothiazolidin-3-yl)-2-oxoethyl)-6-(3-(fluoromethyl)-3-methylazetidin-1-yl)quinoline-4-carboxamide] | 0.3 nM | –
4 | COCC1(C)CN(c2ccc3nccc(C(=O)NCC(=O)N4CSC[C@H]4C#N)c3c2)C1 [Example 29, (R)—N-(2-(4-Cyanothiazolidin-3-yl)-2-oxoethyl)-6-(3-(methoxymethyl)-3-methylazetidin-1-yl)quinoline-4-carboxamide] | – | 26 ×10⁻⁶ cm/s
5 | CO[C@@H]1CN(c2ccc3nccc(C(=O)NCC(=O)N4CSC[C@H]4C#N)c3c2)[C@H]1C [Example 30, N-(2-((R)-4-Cyanothiazolidin-3-yl)-2-oxoethyl)-6-((2S,3R)-3-methoxy-2-methylazetidin-1-yl)quinoline-4-carboxamide] | – | 15 ×10⁻⁶ cm/s
6 | C[C@@H]1CN(c2ccc3nccc(C(=O)NCC(=O)N4CSC[C@H]4C#N)c3c2)C[C@H](C)O1 [Example 68, N-(2-((R)-4-Cyanothiazolidin-3-yl)-2-oxoethyl)-6-((2R,6S)-2,6-dimethylmorpholino)-quinoline-4-carboxamide] | 0.3 nM | –
7 | C[C@@H]1CN(c2ccc3nccc(C(=O)NCC(=O)N4CSC[C@H]4C#N)c3c2)C[C@@H](C)O1 [Example 70, N-(2-((R)-4-Cyanothiazolidin-3-yl)-2-oxoethyl)-6-((2R,6R)-2,6-dimethylmorpholino)-quinoline-4-carboxamide] | 0.2 nM | –
8 | N#C[C@@H]1CSCN1C(=O)CNC(=O)c1ccnc2ccc(N3CCO[C@H](C(F)(F)F)C3)cc12 [Example 74, N-(2-((R)-4-Cyanothiazolidin-3-yl)-2-oxoethyl)-6-((S)-2-(trifluoromethyl)-morpholino)quinoline-4-carboxamide] | 0.2 nM | –
9 | C[C@@H]1OCCN(c2ccc3nccc(C(=O)NCC(=O)N4CSC[C@H]4C#N)c3c2)[C@H]1C [Example 82, N-(2-((R)-4-Cyanothiazolidin-3-yl)-2-oxoethyl)-6-((2S,3S)-2,3-dimethyl-morpholino)quinoline-4-carboxamide] | 0.3 nM | –
10 | CC1(C)CN(c2ccc3nccc(C(=O)NCC(=O)N4CSC[C@H]4C#N)c3c2)CCO1 [Example 88, (R)—N-(2-(4-Cyanothiazolidin-3-yl)-2-oxoethyl)-6-(2,2-dimethyl-morpholino)quinoline-4-carboxamide] | 0.2 nM | 13 ×10⁻⁶ cm/s
11 | N#C[C@@H]1CSCN1C(=O)CNC(=O)c1ccnc2ccc(N3C4CCC3COC4)cc12 [Example 98, 6-(3-Oxa-8-azabicyclo[3.2.1]octan-8-yl)-N-(2-((R)-4-cyanothiazolidin-3-yl)-2-oxoethyl)quinoline-4-carboxamide] | 0.3 nM | 8.6 ×10⁻⁶ cm/s
12 | CC1(C)CCN(c2ccc3nccc(C(=O)NCC(=O)N4CSC[C@H]4C#N)c3c2)C(=O)O1 [Example 112, (R)—N-(2-(4-Cyanothiazolidin-3-yl)-2-oxoethyl)-6-(6,6-dimethyl-2-oxo-1,3-oxazinan-3-yl)quinoline-4-carboxamide] | 0.5 nM | –
13 | CC1(C)Cc2c(-c3ccc4nccc(C(=O)NCC(=O)N5CSC[C@H]5C#N)c4c3)cnn2C1 [Example 123, (R)—N-(2-(4-Cyanothiazolidin-3-yl)-2-oxoethyl)-6-(5,5-dimethyl-5,6-dihydro-4H-pyrrolo[1,2-b]pyrazol-3-yl)quinoline-4-carboxamide] | – | 14 ×10⁻⁶ cm/s
14 | COC1(C)CN(c2ccc3nccc(C(=O)NCC(=O)N4CSC[C@H]4C#N)c3c2)C1 [Example 151, (R)—N-(2-(4-Cyanothiazolidin-3-yl)-2-oxoethyl)-6-(3-methoxy-3-methylazetidin-1-yl)quinoline-4-carboxamide] | 0.3 nM | –
15 | N#C[C@@H]1CSCN1C(=O)CNC(=O)c1ccnc2ccc(N3CC(F)(CF)C3)cc12 [Example 157, (R)—N-(2-(4-Cyanothiazolidin-3-yl)-2-oxoethyl)-6-(3-fluoro-3-(fluoromethyl)azetidin-1-yl)quinoline-4-carboxamide] | 0.4 nM | –
16 | N#C[C@@H]1CSCN1C(=O)CNC(=O)c1ccnc2ccc(N3CC4(C3)OCCO4)cc12 [Example 163, (R)—N-(2-(4-Cyanothiazolidin-3-yl)-2-oxoethyl)-6-(5,8-dioxa-2-azaspiro[3.4]octan-2-yl)quinoline-4-carboxamide] | 0.2 nM | –
17 | CC(=O)NCC1(C)CN(c2ccc3nccc(C(=O)NCC(=O)N4CSC[C@H]4C#N)c3c2)C1 [Example 181, (R)-6-(3-(Acetamidomethyl)-3-methylazetidin-1-yl)-N-(2-(4-cyano-thiazolidin-3-yl)-2-oxoethyl)quinoline-4-carboxamide] | 0.5 nM | –
18 | CC(=O)N1CC2(C1)CN(c1ccc3nccc(C(=O)NCC(=O)N4CSC[C@H]4C#N)c3c1)C2 [Example 184, (R)-6-(6-Acetyl-2,6-diazaspiro[3.3]heptan-2-yl)-N-(2-(4-cyanothiazolidin-3-yl)-2-oxoethyl)quinoline-4-carboxamide] | 0.3 nM | 0.1 ×10⁻⁶ cm/s
19 | CC1(CS(C)(=O)=O)CN(c2ccc3nccc(C(=O)NCC(=O)N4CSC[C@H]4C#N)c3c2)C1 [Example 188, (R)—N-(2-(4-Cyanothiazolidin-3-yl)-2-oxoethyl)-6-(3-methyl-3-((methylsulfonyl)methyl)azetidin-1-yl)quinoline-4-carboxamide] | – | 0.28 ×10⁻⁶ cm/s
20 | CN1CCC(F)(c2ccc3nccc(C(=O)NCC(=O)N4CSC[C@H]4C#N)c3c2)CC1 [Example 195, (R)—N-(2-(4-Cyanothiazolidin-3-yl)-2-oxoethyl)-6-(4-fluoro-1-methyl-piperidin-4-yl)quinoline-4-carboxamide] | 1 nM | –

Next, values leading:

Row | IC50 [1] | Papp A→B [2] | Structure (SMILES)
21 | 0.2 nM | – | COC1CCN(c2ccc3nccc(C(=O)NCC(=O)N4CSC[C@H]4C#N)c3c2)CC1 [Example 8, (R)—N-(2-(4-Cyanothiazolidin-3-yl)-2-oxoethyl)-6-(4-methoxypiperidin-1-yl)quinoline-4-carboxamide]
22 | 0.3 nM | – | CC1(F)CN(c2ccc3nccc(C(=O)NCC(=O)N4CSC[C@H]4C#N)c3c2)C1 [Example 24, (R)—N-(2-(4-Cyanothiazolidin-3-yl)-2-oxoethyl)-6-(3-fluoro-3-methyl-azetidin-1-yl)quinoline-4-carboxamide]
23 | 0.3 nM | 21 ×10⁻⁶ cm/s | N#C[C@@H]1CSCN1C(=O)CNC(=O)c1ccnc2ccc(N3CC(C(F)F)C3)cc12 [Example 28, (R)—N-(2-(4-Cyanothiazolidin-3-yl)-2-oxoethyl)-6-(3-(difluoromethyl)-azetidin-1-yl)quinoline-4-carboxamide]
24 | 0.3 nM | – | N#C[C@@H]1CSCN1C(=O)CNC(=O)c1ccnc2ccc(N3C[C@@H](F)[C@@H](F)C3)cc12 [Example 50, N-(2-((R)-4-Cyanothiazolidin-3-yl)-2-oxoethyl)-6-((3R,4S)-3,4-difluoropyrrolidin-1-yl)quinoline-4-carboxamide]
25 | 0.2 nM | – | N#C[C@@H]1CSCN1C(=O)CNC(=O)c1ccnc2ccc(N3CCO[C@@H](CF)C3)cc12 [Example 69, N-(2-((R)-4-Cyanothiazolidin-3-yl)-2-oxoethyl)-6-((R)-2-(fluoromethyl)morpholino)-quinoline-4-carboxamide]
26 | 0.2 nM | – | N#C[C@@H]1CSCN1C(=O)CNC(=O)c1ccnc2ccc(N3CCO[C@H](CF)C3)cc12 [Example 71, N-(2-((R)-4-Cyanothiazolidin-3-yl)-2-oxoethyl)-6-((S)-2-(fluoromethyl)morpholino)-quinoline-4-carboxamide]
27 | 0.2 nM | – | C[C@@H]1CN(c2ccc3nccc(C(=O)NCC(=O)N4CSC[C@H]4C#N)c3c2)CCO1 [Example 72, N-(2-((R)-4-Cyanothiazolidin-3-yl)-2-oxoethyl)-6-((R)-2-methylmorpholino)-quinoline-4-carboxamide]
28 | 0.2 nM | – | C[C@H]1COCCN1c1ccc2nccc(C(=O)NCC(=O)N3CSC[C@H]3C#N)c2c1 [Example 102, N-(2-((R)-4-Cyanothiazolidin-3-yl)-2-oxoethyl)-6-((S)-3-methyl-morpholino)quinoline-4-carboxamide]
29 | 0.4 nM | 20 ×10⁻⁶ cm/s | N#C[C@@H]1CSCN1C(=O)CNC(=O)c1ccnc2ccc(N3CC(CF)C3)cc12 [Example 113, (R)—N-(2-(4-Cyanothiazolidin-3-yl)-2-oxoethyl)-6-(3-(fluoromethyl)azetidin-1-yl)quinoline-4-carboxamide]
30 | 0.1 nM | – | CC(F)(F)C1CN(c2ccc3nccc(C(=O)NCC(=O)N4CSC[C@H]4C#N)c3c2)C1 [Example 147, (R)—N-(2-(4-Cyanothiazolidin-3-yl)-2-oxoethyl)-6-(3-(1,1-difluoroethyl)-azetidin-1-yl)quinoline-4-carboxamide]
31 | – | 0.51 ×10⁻⁶ cm/s | CC1(O)CN(c2ccc3nccc(C(=O)NCC(=O)N4CSC[C@H]4C#N)c3c2)C1 [Example 165, (R)—N-(2-(4-Cyanothiazolidin-3-yl)-2-oxoethyl)-6-(3-hydroxy-3-methyl-azetidin-1-yl)quinoline-4-carboxamide]
32 | 0.3 nM | – | N#C[C@@H]1CSCN1C(=O)CNC(=O)c1ccnc2ccc(N3CCC(F)CC3)cc12 [Example 205, (R)—N-(2-(4-Cyanothiazolidin-3-yl)-2-oxoethyl)-6-(4-fluoropiperidin-1-yl)quinoline-4-carboxamide]

Source: patent US20240101549A1, “N-(2-(4-CYANOTHIAZOLIDIN-3-YL)-2-OXOETHYL)-QUINOLINE-4-CARBOXAMIDES” (AstraZeneca AB, priority 2020, published 2024)
